Values quoted from earlier work in patent publication US20070281345A1, “Enzymatic Method of Making Aldehydes from Fatty Acids” (Archer-Daniels-Midland Company, priority 2006, published 2007).

Conditions: AOCS Method Tg1a-67 (determined) or Cd1c-85 (calculated)

Row | SMILES | iodine value
1 | CCCCC/C=C\C/C=C\C/C=C\C/C=C\CCCC(=O)O [arachidonic acid] | greater than the iodine value of linoleic acid
2 | CCC=CCC=CCC=CCC=CCC=CCC=CCCC(=O)O [docosahexaenoic acid, 4,7,10,13,16,19-docosahexaenoic acid] | greater than the iodine value of linoleic acid
3 | CCC=CCC=CCC=CCC=CCC=CCCCC(=O)O [eicosapentaenoic acid, 5,8,11,14,17-eicosapentaenoic acid] | greater than the iodine value of linoleic acid
4 | CCCCC/C=C\C/C=C\CCCCCCCC(=O)O [linoleic acid] | 173
5 | CCCCCCCC/C=C\CCCCCCCC(=O)O [oleic acid] | 89
